Counter-ions that a name gives are not always drawn.

The results in this text go back to patent publication US7273856B2, “Linear basic compounds having NK-2 antagonist activity and formulations thereof” (Menarini Ricerche S.P.A., priority 2001, dated 2007).

The target of the first assay is T1, human NK-2 receptor (Homo sapiens, UniProt P21452).
T1 construct: expressed in transfected cells; host or cells: CHO (Chinese hamster ovary) cells, membranes
T1 sequence (P21452 1-398): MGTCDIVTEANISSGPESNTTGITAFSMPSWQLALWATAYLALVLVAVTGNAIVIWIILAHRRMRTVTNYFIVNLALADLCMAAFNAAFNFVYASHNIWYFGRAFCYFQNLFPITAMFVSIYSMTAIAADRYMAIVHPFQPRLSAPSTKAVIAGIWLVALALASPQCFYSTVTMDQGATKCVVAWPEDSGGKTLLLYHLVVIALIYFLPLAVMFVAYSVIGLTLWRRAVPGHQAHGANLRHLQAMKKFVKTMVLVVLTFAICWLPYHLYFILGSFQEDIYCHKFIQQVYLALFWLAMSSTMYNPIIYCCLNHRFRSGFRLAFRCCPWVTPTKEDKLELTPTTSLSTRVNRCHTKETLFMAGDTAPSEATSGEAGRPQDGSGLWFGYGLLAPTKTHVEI
In words: binding test, affinity for the human NK-2 receptor, competition with [125I]NKA on transfected CHO cell membranes.
Details: not given
As to the method:
The evaluation of the antagonist activity on NK-2 receptors has been assessed by binding and functional tests according to that already described in literature in relation to NK-2 antagonists.
The test substances have been tested within a concentration range from 0.01 nM to 10 nM. At the end of the incubation time (30 min, 20° C.) the samples have been filtered and radioactivity has been determined using a gamma-counter.
Regarding `N[C@H]1CCCC[C@@H]1NC(=O)[C@@H]1CC[C@H](NC(=O)[C@@H](Cc2ccccc2)NC(=O)C2(NC(=O)c3cc4ccccc4o3)CCCC2)C1.O=C(O)C(F)(F)F` [Example 6], the pKi – broadly, −log10 of the Ki, conventionally taken in molar units – is recorded as 9.7.

The same assay, now with this note: CHO cell membranes transfected with NK-2 receptor of human ileum; [125I]NKA 100 pM; 30 min, 20° C.
With `C[C@@H]1CN(C(=O)CCNC(=O)[C@@H](Cc2ccccc2)NC(=O)C2(NC(=O)c3cc4ccccc4s3)CCCC2)C[C@H](C)N1` [Example 56, Benzo[b]thiophene-2-carboxylic acid (1-{1(R)-[3-(3,5-cis-dimethylpiperazin-1-yl)-3-oxo-propylcarbamoyl]-2-phenyl-ethylcarbamoyl}-cyclopentyl)-amide TFA salt], the Ki (usually a dissociation constant, usually derived from enzyme kinetics or from competition with a known ligand) is 1580 pM. In turn, `O=C(NC1(C(=O)N[C@H](Cc2ccccc2)C(=O)NCC2CCN(CC3CCOCC3)CC2)CCCC1)c1cc2cccc(C(F)(F)F)c2s1` [Example 136, 7-Trifluoromethyl-benzo[b]thiophene-2-carboxylic acid [1-(2-phenyl-1R-{[1-(tetrahydro-pyran-4-ylmethyl)piperidin-4-ylmethyl]-carbamoyl}-ethylcarbamoyl)-cyclopentyl]-amide] had an inhibition constant (Ki) of 63.1 pM.

Take `O=C(NC1(C(=O)N[C@H](Cc2ccccc2)C(=O)NCC2CCN(CC3CCOCC3)CC2)CCCC1)c1cc2cccc(Br)c2s1` [Example 131, 7-Bromo-benzo[b]thiophene-2-carboxylic acid [1-(2-phenyl-1R-{[1-(tetrahydro-pyran-4-ylmethyl)-piperidin-4-ylmethyl]-carbamoyl}-ethylcarbamoyl)-cyclopentyl]-amide]: the Ki was 39.8 pM. `NC1(C(=O)NCCNC(=O)[C@@H](Cc2ccccc2)NC(=O)C2(NC(=O)c3cc4ccccc4s3)CCCC2)CCCCC1` [Example 95]: the Ki was 1580 pM.

Molecule `O=C(NC1(C(=O)N[C@H](Cc2ccccc2)C(=O)NCCC2CCN(C(=O)[C@H]3CCCN3)CC2)CCCC1)c1ccc2cc(Br)ccc2c1` [Example 99, 6-Bromo-naphthalene-2-carboxylic acid [1-(2-phenyl-1(R)-{2-[1-(pyrrolidine-2(R)-carbonyl)-piperidin-4-yl]-ethylcarbamoyl}-ethylcarbamoyl)-cyclopentyl]-amide] showed a Ki of 316 pM. Molecule `CCN(CC)c1ccc2oc(C(=O)NC3(C(=O)N[C@H](Cc4ccccc4)C(=O)NCC4CCN(CC5CCOCC5)CC4)CCCC3)cc2c1` [Example 147] had a Ki of 631 pM. Molecule `Cn1c(C(=O)NC2(C(=O)N[C@H](Cc3ccccc3)C(=O)N[C@H]3CC[C@@H](C(=O)N[C@H]4CCCC[C@@H]4N)C3)CCCC2)cc2ccccc21.O=C(O)C(F)(F)F` [Example 4, N^γ{N^α[N^α(N-(methyl)indol-2-ylcarboxy)-1-aminocyclopentan-1-carboxy]-D-phenylalanyl}-(1R,3S)-3-aminocyclopentane-1-carboxylic-acid-N-((1S,2S)-2-aminocyclohexyl) amide trifluoroacetate salt] came in with a pKi of 9.8. In the case of `CCCCN(CCCC)CCCNC(=O)[C@@H](Cc1ccccc1)NC(=O)C1(NC(=O)c2cc3ccccc3s2)CCCCC1` [Example 19, N^α[N^α(benzo[b]thiophen-2-yl-carbonyl)-1-aminocyclohexan-1-carboxy]-D-phenylalanine-N-{3-[bis(n-butyl)amino]propyl}amide], the pKi was 8.9. `NC1(C(=O)N2CCC(CNC(=O)[C@@H](Cc3ccccc3)NC(=O)C3(NC(=O)c4ccc5cc(Br)ccc5c4)CCCC3)CC2)CCCCC1` [Example 97, 6-Bromo-naphthalene-2-carboxylic acid [1-(1(R)-{[1-(1-amino-cyclohexanecarbonyl)-piperidin-4-ylmethyl]-carbamoyl}-2-phenyl-ethylcarbamoyl)-cyclopentyl]-amide]: the affinity corresponds to a Ki of 20 pM.

Molecule `N[C@H]1CCCC[C@@H]1NC(=O)C1CCCC(NC(=O)[C@@H](Cc2ccccc2)NC(=O)C2(NC(=O)c3cc4ccccc4s3)CCCC2)C1` (stereo partly drawn) [Example 31, acid-3-cis-N^γ{N^α[N^α(benzo[b]thiophen-2-ylcarbonyl)-1-aminocyclopentan-1-carboxy]-D-phenylalanil}aminocyclohexan-1-carboxylic-N-[(1S,2S)-aminocyclohexyl]amide] showed an inhibition constant (Ki) of 79.4 pM. `NC1CCCCC1NC(=O)C1CCC(NC(=O)C(Cc2ccccc2)NC(=O)C2(NC(=O)c3cc4ccccc4s3)CCCC2)C1` (single isomer, unassigned) [Example 37] gave a Ki of 12.6 pM.

As to `O=C(NC1(C(=O)N[C@H](Cc2ccccc2)C(=O)NCCCN2CCOCC2)CCCC1)c1cc2ccc(Br)cc2s1` [Example 108, 6-Bromo-benzo[b]thiophene-2-carboxylic acid {1-[1R-(3-morpholin-4-yl-propylcarbamoyl)-2-phenyl-ethylcarbamoyl]-cyclopentyl}-amide], the Ki was 79.4 pM. `O=C(NC1(C(=O)N[C@H](Cc2ccccc2)C(=O)NCC2CCN(CC3CCOCC3)CC2)CCCC1)c1cc2ccc(Br)cc2o1` [Example 119, 6-Bromo-benzofuran-2-carboxylic acid [1-(2-phenyl-1R-{[1-(tetrahydro-pyran-4-ylmethyl)-piperidin-4-ylmethyl]-carbamoyl}-ethylcarbamoyl)cyclopentyl]-amide] showed an inhibition constant Ki of 251 pM.

Molecule `Cn1c(C(=O)NC2(C(=O)N[C@H](Cc3ccccc3)C(=O)NCCCN3CCOCC3)CCCC2)cc2ccc(Cl)cc21` [Example 111, 6-Chloro-1-methyl-1H-indole-2-carboxylic acid {1-[1R-(3-morpholin-4-yl-propylcarbamoyl)-2-phenyl-ethylcarbamoyl]-cyclopentyl}-amide] showed a Ki of 200 pM. As for `O=C(NC1(C(=O)N[C@H](Cc2ccccc2)C(=O)NCCC(=O)N2CCN(CC3COCOC3)CC2)CCCC1)c1cc2ccccc2s1` [Example 62, Benzo[b]thiophene-2-carboxylic acid (1-{1(R)-[3-(4-[1,3]dioxan-5-ylmethyl-piperazin-1-yl)3-oxo-propylcarbamoyl]-2-phenyl-ethylcarbamoyl}-cyclopentyl)-amide TFA salt], the Ki was 2000 pM. The molecule `O=C(NC1(C(=O)N[C@H](Cc2ccccc2)C(=O)NCC2CCN(CC3CCSCC3)CC2)CCCC1)c1cc2ccccc2s1` [Example 82, Benzo[b]thiophene-2-carboxylic acid [1-(2-phenyl-1(R)-{[1-(tetrahydro-thiopyran-4-ylmethyl)-piperidin-4-ylmethyl]-carbamoyl}-ethylcarbamoyl)cyclopentyl]-amide] had a Ki of 100 pM. `O=C(NC1(C(=O)N[C@H](Cc2ccccc2)C(=O)NCC2CCN(CC3CCOCC3)CC2)CCCC1)c1cc2cccc(Cl)c2s1` [Example 137, 7-Chloro-benzo[b]thiophene-2-carboxylic acid [1-(2-phenyl-1R-{[1-(tetrahydro-pyran-4-ylmethyl)-piperidin-4-ylmethyl]-carbamoyl}-ethylcarbamoyl)-cyclopentyl]-amide] had a Ki of 79.4 pM. With `O=C(NC1(C(=O)N[C@H](Cc2ccccc2)C(=O)NCC2CCN(CCC3CCOCC3)CC2)CCCC1)c1cc2ccccc2s1` [Example 78, Benzo[b]thiophene-2-carboxylic acid {1-[2-phenyl-1(R)-({1-[2-(tetrahydro-pyran-4-yl)-ethyl]-piperidin-4-ylmethyl}-carbamoyl)-ethylcarbamoyl]-cyclopentyl}-amide], affinity was put at a Ki of 1000 pM.

Molecule `O=C(NC1(C(=O)N[C@H](Cc2ccccc2)C(=O)NCC2CCN(C3CCOCC3)CC2)CCCC1)c1ccc2cc(Br)ccc2c1` [Example 80, 6-Bromo-naphthalene-2-carboxylic acid [1-(2-phenyl-1(R)-{[1-(tetrahydro-pyran-4-yl)-piperidin-4-ylmethyl]-carbamoyl}-ethylcarbamoyl)-cyclopentyl]-amide] had a Ki of 251 pM. Turning to `O=C(NC1(C(=O)NC(Cc2ccccc2)C(=O)NCC2CCN(CC3CCOCC3)CC2)CCCC1)c1ccc2ccccc2c1` (stereo not drawn) [Example 149, Naphthalene-2-carboxylic acid [1-(2-phenyl-1-{[1R-(tetrahydro-pyran-4-ylmethyl)-piperidin-4ylmethyl]-carbamoyl}-ethylcarbamoyl)-cyclopentyl]-amide], the pKi is 9.9. Take `Cc1ccc2oc(C(=O)NC3(C(=O)N[C@H](Cc4ccccc4)C(=O)NCC4CCN(CC5CCOCC5)CC4)CCCC3)cc2c1` [Example 126, 5-Methyl-benzofuran-2-carboxylic acid [1-(2-phenyl-1R-([1-(tetrahydro-pyran-4-ylmethyl)-piperidin-4-ylmethyl]-carbamoyl}-ethylcarbamoyl)-cyclopentyl]-amide]: the Ki was 158 pM.

As to `O=C(NC1(C(=O)N[C@H](Cc2ccccc2)C(=O)NCCC(=O)N2CCN(c3ccccn3)CC2)CCCC1)c1ccc2cc(Br)ccc2c1` [Example 58, 6-Bromo-naphthalene-2-carboxylic acid (1-{1(R)-[3-oxo-3-(4-pyridin-2-yl-piperazin-1-yl)propylcarbamoyl]-2-phenyl-ethylcarbamoyl}-cyclopentyl)-amide TFA salt], the Ki is 3160 pM. On to `Cc1ccc2sc(C(=O)NC3(C(=O)N[C@H](Cc4ccccc4)C(=O)NCC4CCN(CC5CCOCC5)CC4)CCCC3)cc2c1` [Example 138, 5-Methyl-benzo[b]thiophene-2-carboxylic acid [1-(2-phenyl-1R-{[1-(tetrahydro-pyran-4-ylmethyl)piperidin-ylmethyl]-carbamoyl}-ethylcarbamoyl)-cyclopentyl]-amide], for which the pKi amounted to 9.8.
